{"source": "paper PMC7497403", "about": "“Development of Potent PfCLK3 Inhibitors Based on TCMDC-135051 as a New Class of Antimalarials” (Journal of Medicinal Chemistry, 2020)", "assay_in_all_cases": "Kinase screen", "format_in_all_cases": "biochemical", "key": {"[1]": {"target": "MNK2 (Homo sapiens, UniProt Q9HBH9)", "text": "(§1) With verapamil used as a positive control.\n(§2) V. Distribution coefficient (LogD7.4)"}, "[2]": {"target": "HIPK1 (Homo sapiens, UniProt Q86Z02)", "text": "as §1, §2"}, "[3]": {"target": "IKKb (Homo sapiens, UniProt O14920)", "text": "as §1, §2"}, "[4]": {"target": "PKD1 (Homo sapiens, UniProt Q15139)", "text": "as §1, §2"}, "[5]": {"target": "MST2 (Homo sapiens, UniProt Q13188)", "sequence (Q13188 whole entry)": "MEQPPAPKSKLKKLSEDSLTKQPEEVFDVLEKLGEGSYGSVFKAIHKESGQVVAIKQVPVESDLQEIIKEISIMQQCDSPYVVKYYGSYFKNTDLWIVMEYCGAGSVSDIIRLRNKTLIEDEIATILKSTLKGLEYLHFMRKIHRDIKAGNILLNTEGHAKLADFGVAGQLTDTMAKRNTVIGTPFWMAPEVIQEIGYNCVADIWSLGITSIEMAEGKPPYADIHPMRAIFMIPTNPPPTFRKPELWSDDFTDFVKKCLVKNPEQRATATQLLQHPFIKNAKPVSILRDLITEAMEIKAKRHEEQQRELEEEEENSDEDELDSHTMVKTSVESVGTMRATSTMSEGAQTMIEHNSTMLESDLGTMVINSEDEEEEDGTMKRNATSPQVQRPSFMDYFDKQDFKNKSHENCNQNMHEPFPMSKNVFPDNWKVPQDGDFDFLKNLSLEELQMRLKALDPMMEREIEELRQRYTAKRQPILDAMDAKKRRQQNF", "text": "as §1, §2"}, "[6]": {"target": "PAK4 (Homo sapiens, UniProt O96013)", "text": "as §1, §2"}, "[7]": {"target": "TBK1 (Homo sapiens, UniProt Q9UHD2)", "text": "as §1, §2"}, "[8]": {"target": "PDK1 (Homo sapiens, UniProt O15530)", "text": "as §1, §2"}, "[9]": {"target": "PLK1 (Homo sapiens, UniProt P53350)", "text": "as §1, §2"}, "[10]": {"target": "ZAP70 (Homo sapiens, UniProt P43403)", "sequence (P43403 whole entry)": "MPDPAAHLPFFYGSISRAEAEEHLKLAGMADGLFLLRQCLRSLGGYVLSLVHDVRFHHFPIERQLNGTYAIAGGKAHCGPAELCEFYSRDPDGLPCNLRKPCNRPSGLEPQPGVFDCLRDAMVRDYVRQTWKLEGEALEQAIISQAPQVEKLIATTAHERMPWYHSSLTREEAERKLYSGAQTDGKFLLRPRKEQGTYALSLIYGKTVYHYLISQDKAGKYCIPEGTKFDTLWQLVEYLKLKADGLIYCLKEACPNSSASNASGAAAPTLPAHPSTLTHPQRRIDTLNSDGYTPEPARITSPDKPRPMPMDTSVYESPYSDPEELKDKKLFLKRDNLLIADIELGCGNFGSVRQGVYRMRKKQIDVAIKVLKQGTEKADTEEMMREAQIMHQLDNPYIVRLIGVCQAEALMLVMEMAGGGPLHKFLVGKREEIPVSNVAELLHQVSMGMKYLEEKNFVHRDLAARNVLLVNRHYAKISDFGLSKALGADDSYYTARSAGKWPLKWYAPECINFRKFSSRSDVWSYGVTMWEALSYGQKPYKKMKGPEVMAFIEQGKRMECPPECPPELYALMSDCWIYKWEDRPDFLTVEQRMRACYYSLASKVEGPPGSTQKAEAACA", "text": "as §1, §2"}, "[11]": {"target": "DDR2 (Homo sapiens, UniProt Q16832)", "text": "as §1, §2"}, "[12]": {"target": "HIPK2 (Homo sapiens, UniProt Q9H2X6)", "text": "as §1, §2"}, "[13]": {"target": "PIM3 (Homo sapiens, UniProt Q86V86)", "text": "as §1, §2"}, "[14]": {"target": "PAK5 (Homo sapiens, UniProt Q9P286)", "text": "as §1, §2"}, "[15]": {"target": "PRK2 (Homo sapiens, UniProt Q16513)", "text": "as §1, §2"}, "[16]": {"target": "SIK3 (Homo sapiens, UniProt Q9Y2K2)", "sequence (Q9Y2K2 whole entry)": "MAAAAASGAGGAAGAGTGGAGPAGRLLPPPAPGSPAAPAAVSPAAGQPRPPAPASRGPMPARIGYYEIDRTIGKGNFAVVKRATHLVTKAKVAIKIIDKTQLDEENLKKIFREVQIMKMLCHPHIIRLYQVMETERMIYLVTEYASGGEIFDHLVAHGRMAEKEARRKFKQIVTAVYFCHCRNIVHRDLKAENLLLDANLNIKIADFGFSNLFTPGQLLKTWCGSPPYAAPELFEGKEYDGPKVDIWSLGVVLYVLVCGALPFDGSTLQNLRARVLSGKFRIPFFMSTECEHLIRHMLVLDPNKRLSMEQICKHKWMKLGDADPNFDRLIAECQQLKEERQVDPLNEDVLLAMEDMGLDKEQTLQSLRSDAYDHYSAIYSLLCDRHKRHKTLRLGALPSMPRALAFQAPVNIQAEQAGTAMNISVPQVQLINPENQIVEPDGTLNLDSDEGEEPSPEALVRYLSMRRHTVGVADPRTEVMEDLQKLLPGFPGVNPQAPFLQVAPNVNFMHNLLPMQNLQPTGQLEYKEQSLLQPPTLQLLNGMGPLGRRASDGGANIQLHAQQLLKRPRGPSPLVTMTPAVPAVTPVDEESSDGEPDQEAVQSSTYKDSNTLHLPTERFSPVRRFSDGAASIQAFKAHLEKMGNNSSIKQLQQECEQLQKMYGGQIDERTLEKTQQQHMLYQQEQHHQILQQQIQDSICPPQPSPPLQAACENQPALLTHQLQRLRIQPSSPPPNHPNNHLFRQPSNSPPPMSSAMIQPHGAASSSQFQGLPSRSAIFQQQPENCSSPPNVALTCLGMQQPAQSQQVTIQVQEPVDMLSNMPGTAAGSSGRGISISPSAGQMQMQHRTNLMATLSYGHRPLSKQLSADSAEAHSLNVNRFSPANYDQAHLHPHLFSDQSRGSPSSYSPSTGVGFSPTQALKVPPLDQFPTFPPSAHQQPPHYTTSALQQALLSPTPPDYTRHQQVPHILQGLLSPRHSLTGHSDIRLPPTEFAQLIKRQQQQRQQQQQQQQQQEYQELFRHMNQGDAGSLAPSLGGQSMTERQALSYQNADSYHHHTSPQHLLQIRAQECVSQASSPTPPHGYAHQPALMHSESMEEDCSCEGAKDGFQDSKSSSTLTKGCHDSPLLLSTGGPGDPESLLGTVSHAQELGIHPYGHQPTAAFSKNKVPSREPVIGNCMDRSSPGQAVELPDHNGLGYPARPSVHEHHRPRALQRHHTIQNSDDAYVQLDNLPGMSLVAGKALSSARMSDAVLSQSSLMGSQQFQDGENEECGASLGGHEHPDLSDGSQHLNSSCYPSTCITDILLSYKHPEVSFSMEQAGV", "text": "as §1, §2"}, "[17]": {"target": "TrkA (Homo sapiens, UniProt P04629)", "sequence (P04629 33-796)": "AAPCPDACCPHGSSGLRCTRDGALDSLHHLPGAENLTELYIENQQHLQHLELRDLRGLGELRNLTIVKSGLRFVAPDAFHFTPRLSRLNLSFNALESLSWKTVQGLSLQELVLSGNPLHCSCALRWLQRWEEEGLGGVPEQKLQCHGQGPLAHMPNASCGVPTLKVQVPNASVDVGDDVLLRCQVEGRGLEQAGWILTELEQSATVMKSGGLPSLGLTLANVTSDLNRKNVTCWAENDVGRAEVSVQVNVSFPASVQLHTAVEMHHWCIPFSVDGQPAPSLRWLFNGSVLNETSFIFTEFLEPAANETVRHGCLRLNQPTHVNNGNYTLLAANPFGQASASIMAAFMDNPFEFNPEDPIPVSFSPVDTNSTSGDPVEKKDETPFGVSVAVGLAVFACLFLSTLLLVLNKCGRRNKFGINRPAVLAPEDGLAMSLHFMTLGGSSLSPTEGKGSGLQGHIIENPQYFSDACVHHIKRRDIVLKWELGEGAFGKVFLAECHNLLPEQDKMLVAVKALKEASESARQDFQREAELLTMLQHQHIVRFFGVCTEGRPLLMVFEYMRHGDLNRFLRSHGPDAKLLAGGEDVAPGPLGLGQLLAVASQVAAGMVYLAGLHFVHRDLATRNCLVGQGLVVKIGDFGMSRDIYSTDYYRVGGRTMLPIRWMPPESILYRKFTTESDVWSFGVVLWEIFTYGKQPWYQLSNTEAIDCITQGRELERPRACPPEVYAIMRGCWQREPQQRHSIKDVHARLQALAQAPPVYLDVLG", "text": "as §1, §2"}, "[18]": {"target": "EIF2AK3 (Homo sapiens, UniProt Q9NZJ5)", "text": "as §1, §2"}, "[19]": {"target": "PHK (Homo sapiens, UniProt Q16816)", "text": "as §1, §2"}, "[20]": {"target": "SIK2 (Homo sapiens, UniProt Q9H0K1)", "sequence (Q9H0K1 whole entry)": "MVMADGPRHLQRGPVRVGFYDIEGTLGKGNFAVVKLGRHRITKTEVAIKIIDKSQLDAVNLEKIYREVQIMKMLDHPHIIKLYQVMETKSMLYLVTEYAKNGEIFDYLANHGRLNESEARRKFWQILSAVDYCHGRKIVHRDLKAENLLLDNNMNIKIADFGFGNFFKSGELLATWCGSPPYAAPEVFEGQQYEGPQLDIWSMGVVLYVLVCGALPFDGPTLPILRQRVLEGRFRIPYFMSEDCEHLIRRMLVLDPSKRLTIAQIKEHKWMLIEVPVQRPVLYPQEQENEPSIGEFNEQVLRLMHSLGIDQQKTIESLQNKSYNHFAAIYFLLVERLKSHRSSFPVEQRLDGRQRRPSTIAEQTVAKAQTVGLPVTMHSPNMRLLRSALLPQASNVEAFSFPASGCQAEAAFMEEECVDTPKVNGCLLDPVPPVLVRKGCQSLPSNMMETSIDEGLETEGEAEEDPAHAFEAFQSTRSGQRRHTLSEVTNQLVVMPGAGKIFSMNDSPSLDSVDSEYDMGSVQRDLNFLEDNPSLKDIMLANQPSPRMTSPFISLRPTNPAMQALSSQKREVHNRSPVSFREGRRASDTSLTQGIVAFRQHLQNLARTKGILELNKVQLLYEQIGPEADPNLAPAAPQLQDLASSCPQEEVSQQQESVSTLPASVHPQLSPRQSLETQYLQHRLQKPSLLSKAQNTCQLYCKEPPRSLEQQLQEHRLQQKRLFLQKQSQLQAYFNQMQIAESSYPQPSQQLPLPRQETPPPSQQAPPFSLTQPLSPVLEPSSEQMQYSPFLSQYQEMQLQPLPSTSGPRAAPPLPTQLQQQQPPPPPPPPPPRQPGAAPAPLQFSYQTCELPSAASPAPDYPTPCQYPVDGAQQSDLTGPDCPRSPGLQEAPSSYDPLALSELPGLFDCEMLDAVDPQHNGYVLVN", "text": "as §1, §2"}, "[21]": {"target": "EPH-B3 (Homo sapiens, UniProt P54753)", "text": "as §1, §2"}, "[22]": {"target": "CAMK1 (Homo sapiens, UniProt Q14012)", "text": "as §1, §2"}, "[23]": {"target": "MINK1 (Homo sapiens, UniProt Q8N4C8)", "text": "as §1, §2"}, "[24]": {"target": "WNK1 (Homo sapiens, UniProt Q9H4A3)", "text": "as §1, §2"}, "[25]": {"target": "CHK2 (Homo sapiens, UniProt O96017)", "text": "as §1, §2"}, "[26]": {"target": "BRSK1 (Homo sapiens, UniProt Q8TDC3)", "text": "as §1, §2"}, "[27]": {"target": "MNK1 (Homo sapiens, UniProt Q9BUB5)", "text": "as §1, §2"}, "[28]": {"target": "MAP4K3 (Homo sapiens, UniProt Q8IVH8)", "text": "as §1, §2"}, "[29]": {"target": "HIPK3 (Homo sapiens, UniProt Q9H422)", "text": "as §1, §2"}, "[30]": {"target": "CHK1 (Homo sapiens, UniProt O14757)", "text": "as §1, §2"}, "[31]": {"target": "MKK1 (Homo sapiens, UniProt Q02750)", "text": "as §1, §2"}, "[32]": {"target": "MLK1 (Homo sapiens, UniProt P80192)", "text": "as §1, §2"}, "[33]": {"target": "MAPKAP-K2 (Homo sapiens, UniProt P49137)", "text": "as §1, §2"}, "[34]": {"target": "MELK (Homo sapiens, UniProt Q14680)", "text": "as §1, §2"}, "[35]": {"target": "EPH-A4 (Homo sapiens, UniProt P54764)", "text": "as §1, §2"}, "[36]": {"target": "ERK2 (Homo sapiens, UniProt P28482)", "text": "as §1, §2"}, "[37]": {"target": "CK2 (Homo sapiens, UniProt P68400)", "text": "as §1, §2"}, "[38]": {"target": "MAPKAP-K3 (Homo sapiens, UniProt Q16644)", "text": "as §1, §2"}, "[39]": {"target": "S6K1 (Homo sapiens, UniProt P23443)", "text": "as §1, §2"}, "[40]": {"target": "NEK6 (Homo sapiens, UniProt Q9HC98)", "text": "as §1, §2"}, "[41]": {"target": "RSK1 (Homo sapiens, UniProt Q15418)", "sequence (Q15418 whole entry)": "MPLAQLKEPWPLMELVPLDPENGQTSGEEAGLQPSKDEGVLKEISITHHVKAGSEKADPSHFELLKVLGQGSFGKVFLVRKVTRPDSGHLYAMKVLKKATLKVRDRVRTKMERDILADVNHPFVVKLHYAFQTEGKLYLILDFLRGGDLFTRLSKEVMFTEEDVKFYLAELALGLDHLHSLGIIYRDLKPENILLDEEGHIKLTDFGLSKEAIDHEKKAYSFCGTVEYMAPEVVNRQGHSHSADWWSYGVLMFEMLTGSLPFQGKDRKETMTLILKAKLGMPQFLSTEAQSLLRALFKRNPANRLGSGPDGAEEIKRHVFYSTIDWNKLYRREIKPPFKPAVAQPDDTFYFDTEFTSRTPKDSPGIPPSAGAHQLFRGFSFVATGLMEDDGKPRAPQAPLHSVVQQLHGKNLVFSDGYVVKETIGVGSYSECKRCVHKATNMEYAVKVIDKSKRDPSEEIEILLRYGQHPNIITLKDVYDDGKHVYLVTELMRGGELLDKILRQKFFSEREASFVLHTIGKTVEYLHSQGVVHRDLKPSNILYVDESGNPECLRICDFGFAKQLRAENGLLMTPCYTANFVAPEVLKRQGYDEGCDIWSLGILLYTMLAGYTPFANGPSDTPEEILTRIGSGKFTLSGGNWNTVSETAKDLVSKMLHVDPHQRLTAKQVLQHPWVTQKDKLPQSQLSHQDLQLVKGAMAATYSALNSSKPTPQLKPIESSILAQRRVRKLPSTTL", "text": "as §1, §2"}, "[42]": {"target": "TSSK1 (Homo sapiens, UniProt Q9BXA7)", "text": "as §1, §2"}, "[43]": {"target": "p38b MAPK (Homo sapiens, UniProt Q15759)", "text": "as §1, §2"}, "[44]": {"target": "MARK1 (Homo sapiens, UniProt Q9P0L2)", "text": "as §1, §2"}, "[45]": {"target": "Aurora B (Homo sapiens, UniProt Q96GD4)", "text": "as §1, §2"}, "[46]": {"target": "RIPK2 (Homo sapiens, UniProt O43353)", "text": "as §1, §2"}}}
{"smiles": "CCN(CC)Cc1ccc(OC)c(-c2cc3c(-c4ccc(C(=O)O)c(C(C)C)c4)ccnc3[nH]2)c1", "note": "[analogue 1, 4-(2-(5-((Diethylamino)methyl)-2-methoxyphenyl)-1H-pyrrolo[2,3-b]pyridin-4-yl)-2-isopropylbenzoic Acid]", "values": [{"measurement": "activity at 1 µM", "setting": "[1]", "value": 29, "unit": "%"}, {"measurement": "activity at 1 µM", "setting": "[2]", "value": 83, "unit": "%"}, {"measurement": "activity at 1 µM", "setting": "[3]", "value": 144, "unit": "%"}, {"measurement": "activity at 1 µM", "setting": "[4]", "value": 85, "unit": "%"}, {"measurement": "activity at 1 µM", "setting": "[5]", "value": 68, "unit": "%"}, {"measurement": "activity at 1 µM", "setting": "[6]", "value": 105, "unit": "%"}, {"measurement": "activity at 1 µM", "setting": "[7]", "value": 66, "unit": "%"}, {"measurement": "activity at 1 µM", "setting": "[8]", "value": 111, "unit": "%"}, {"measurement": "activity at 1 µM", "setting": "[9]", "value": 104, "unit": "%"}, {"measurement": "activity at 1 µM", "setting": "[10]", "value": 59, "unit": "%"}, {"measurement": "activity at 1 µM", "setting": "[11]", "value": 21, "unit": "%"}, {"measurement": "activity at 1 µM", "setting": "[12]", "value": 56, "unit": "%"}, {"measurement": "activity at 1 µM", "setting": "[13]", "value": 80, "unit": "%"}, {"measurement": "activity at 1 µM", "setting": "[14]", "value": 75, "unit": "%"}, {"measurement": "activity at 1 µM", "setting": "[15]", "value": 48, "unit": "%"}, {"measurement": "activity at 1 µM", "setting": "[16]", "value": 71, "unit": "%"}, {"measurement": "activity at 1 µM", "setting": "[17]", "value": 87, "unit": "%"}, {"measurement": "activity at 1 µM", "setting": "[18]", "value": 100, "unit": "%"}, {"measurement": "activity at 1 µM", "setting": "[19]", "value": 10, "unit": "%"}, {"measurement": "activity at 1 µM", "setting": "[20]", "value": 41, "unit": "%"}, {"measurement": "activity at 1 µM", "setting": "[21]", "value": 108, "unit": "%"}, {"measurement": "activity at 1 µM", "setting": "[22]", "value": 86, "unit": "%"}, {"measurement": "activity at 1 µM", "setting": "[23]", "value": 44, "unit": "%"}, {"measurement": "activity at 1 µM", "setting": "[24]", "value": 105, "unit": "%"}, {"measurement": "activity at 1 µM", "setting": "[25]", "value": 77, "unit": "%"}, {"measurement": "activity at 1 µM", "setting": "[26]", "value": 66, "unit": "%"}, {"measurement": "activity at 1 µM", "setting": "[27]", "value": 0, "unit": "%"}, {"measurement": "activity at 1 µM", "setting": "[28]", "value": 1, "unit": "%"}, {"measurement": "activity at 1 µM", "setting": "[29]", "value": 93, "unit": "%"}, {"measurement": "activity at 1 µM", "setting": "[30]", "value": 78, "unit": "%"}, {"measurement": "activity at 1 µM", "setting": "[31]", "value": 79, "unit": "%"}, {"measurement": "activity at 1 µM", "setting": "[32]", "value": 111, "unit": "%"}, {"measurement": "activity at 1 µM", "setting": "[33]", "value": 102, "unit": "%"}, {"measurement": "activity at 1 µM", "setting": "[34]", "value": 85, "unit": "%"}, {"measurement": "activity at 1 µM", "setting": "[35]", "value": 83, "unit": "%"}, {"measurement": "activity at 1 µM", "setting": "[36]", "value": 115, "unit": "%"}, {"measurement": "activity at 1 µM", "setting": "[37]", "value": 90, "unit": "%"}, {"measurement": "activity at 1 µM", "setting": "[38]", "value": 110, "unit": "%"}, {"measurement": "activity at 1 µM", "setting": "[39]", "value": 87, "unit": "%"}, {"measurement": "activity at 1 µM", "setting": "[40]", "value": 96, "unit": "%"}, {"measurement": "activity at 1 µM", "setting": "[41]", "value": 106, "unit": "%"}, {"measurement": "activity at 1 µM", "setting": "[42]", "value": 55, "unit": "%"}, {"measurement": "activity at 1 µM", "setting": "[43]", "value": 112, "unit": "%"}, {"measurement": "activity at 1 µM", "setting": "[44]", "value": 52, "unit": "%"}, {"measurement": "activity at 1 µM", "setting": "[45]", "value": 59, "unit": "%"}, {"measurement": "activity at 1 µM", "setting": "[46]", "value": 16, "unit": "%"}]}
